# Source: patent publication US20250041434A1, “CEA ASSAY FOR PATIENT SELECTION IN CANCER THERAPY” (SANOFI, priority 2021, published 2025)
# Experiments:
# [1] = preliminary experiments on effector activity
# CEACAM8 = biological target: T1, CEACAM8 (Homo sapiens, UniProt P31997); assay: recognition of other CEACAMs; format: binding
# T1 sequence (P31997 35-320): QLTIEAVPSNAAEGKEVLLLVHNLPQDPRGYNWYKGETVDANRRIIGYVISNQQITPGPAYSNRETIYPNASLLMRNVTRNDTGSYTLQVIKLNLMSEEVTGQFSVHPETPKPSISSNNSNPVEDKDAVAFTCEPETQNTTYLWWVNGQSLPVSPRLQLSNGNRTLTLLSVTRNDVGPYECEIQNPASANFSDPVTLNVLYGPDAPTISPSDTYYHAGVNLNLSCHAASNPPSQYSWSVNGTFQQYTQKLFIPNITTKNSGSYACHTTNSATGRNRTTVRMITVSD
# [2] = system: NSQ NSCLC with high CEACAM5 expression; assay: TED13751 clinical study, tumor response (RECIST 1.1) in NSQ NSCLC high CEACAM5 expressers; format: in vivo, human; details: for anti-tumor activity, in words: participants heavily pre-treated for NSQ NSCLC, study TED13751
# Method: In this cohort of NSQ NSCLC participants with high CEACAM5 expression on tumor (≥2+ in intensity in ≥50%) expansion cohort NSQ NSCLC, 10 out of 13 responding participants had high baseline circulating CEA (≥100 ng/mL).
# Expression of CEACAM5 on tumor was assessed using CEACAM5 IHC test and circulating CEA and CEACAM5 assays for patients enrolled in clinical trial TED13751 (NCT02187848).
# Circulating CEA was determined locally using the assay which was of routine use in the institution. In vitro diagnostic CEA assays measure CEA not claiming specificity for CEACAM5.
# The study will be divided in […] parts: The Escalation Phase and the Expansion Phase.
# The expansion phase will be conducted with every 2 weekly dosing schedule. During the Expansion Phase, the population to be treated will be restricted to patients with advanced diseases in colorectal cancer (CRC), NSQ NSCLC, small cell lung cancer (SCLC), and gastric adenocarcinoma (including signet-ring cell carcinoma subtype as well as esophago-gastric junction (EGJ) adenocarcinomas of the Siewert Types II and III). CEACAM5 expression of ≥2+ in intensity involving ≥50% of the tumor cell population will be documented during pre-screening on the most recent archival tissue sample and using local IHC evaluation for patients potentially eligible for study treatment in the gastric adenocarcinoma cohort. There are 2 independent NSQ NSCLC expansion phase cohorts: The first one (Lung cohort) includes patients with high CEACAM5 expression (≥2+ in intensity involving at least 50% of the tumor cell population). The second cohort (Lung bis cohort) will include patients that pre-screened positive at moderate intensity (≥2+ between ≥1% to <50% of the tumor cell population). The SCLC cohort includes patients with CEACAM5 expression of ≥2+ in intensity involving ≥1% of the tumor cell population. […] Full screening will only be done for archival cases meeting the above definition. No CEACAM5 pre-screening is required for CRC patients potentially eligible for the CRC expansion cohort. The level of CEACAM5 expression will be documented essentially retrospectively and centrally on both archival and fresh (baseline sample) tumor tissues. Confirmation of CEACAM5 tumor expression will be done retrospectively in a central laboratory on fresh tumor tissue collected at baseline (mandatory biopsy in the Expansion Phase only, on all patients with CRC and gastric cancer, and on NSQ NSCLC as well as SCLC patients with a lesion amenable to biopsy). If sufficient archived tumor material is available, a central evaluation will also be done retrospectively to gain knowledge on the variability in evaluation of the expression. The results of the retrospective analyses will have no impact on patients' treatment. It will be used for the better interpretation of the overall response, and as the baseline for comparison with CEACAM5 expression upon progression (exploration for loss of CEACAM5 as mechanism of acquired resistance).
# In the Expansion cohorts, the assessment of response to tusamitamab ravtansine is a primary objective. All patients treated in the Expansion Phase must have at least one measurable lesion for inclusion. Tumor assessment will be made at least every 4 cycles. Decision to pursue treatment will be based on the response evaluation made by the Investigator, however, measures of lesions will be collected in the electronic case report forms for a determination of response by Sponsor. A partial or complete response must be confirmed on a second examination done at least 4 weeks apart, in order to be documented as a confirmed response to therapy.
# The RECIST v1.1 criteria will be followed for assessment of tumor response.
# CEACAM7 = biological target: T2, CEACAM7 (Homo sapiens, UniProt Q14002); assay: recognition of other CEACAMs; format: binding
# T2 sequence (Q14002 36-242): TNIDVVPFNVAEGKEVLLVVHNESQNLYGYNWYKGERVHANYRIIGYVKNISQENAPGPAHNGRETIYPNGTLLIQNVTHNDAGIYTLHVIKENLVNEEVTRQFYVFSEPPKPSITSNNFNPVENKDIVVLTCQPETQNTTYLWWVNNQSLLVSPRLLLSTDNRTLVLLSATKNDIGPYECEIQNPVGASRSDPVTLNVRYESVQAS
# tumor cells = details: see WO 2014/079886; cited from earlier work
# [3] = system: human primary colon and stomach tumors; details: mice bearing human primary colon and stomach tumors; see WO 2014/079886; cited from earlier work
# [4] = Phase 1/2 study, heavily pre-treated high CEACAM5 expressers for NSCLC
substance,measurement,setting,value
Tusamitamab ravtansine: immunoconjugate ADC combining humanized anti-CEACAM5 antibody tusamitamab and maytansinoid DM4 via SPDB linker; CAS Registry No. 2254086-60-5,effector activity,[1],devoid of effector activity
same,recognition of CEACAM8,CEACAM8,does not recognize
same,participants who had PR,"[2]; 100 mg/m^2 Q2W, 64 participants, RECIST 1.1",13
same,overall response rate,"[2]; 100 mg/m^2 Q2W, 64 participants, RECIST 1.1, 95% CI: 12.27% to 31.71%",20.3%
same,"Duration of Response (DoR), in words",[2]; [4],competitive
same,"Overall Response Rate (ORR), in words",[2]; [4],competitive
same,Responses (%),"[2]; baseline circulating CEA <5 μg/L (9 patients), 100 mg/m^2 Q2W",22.2%
same,Responses (%),"[2]; baseline circulating CEA <100 μg/L (37 patients), 100 mg/m^2 Q2W",8.1%
same,Responses (%),"[2]; baseline circulating CEA >3 μg/L (58 patients), 100 mg/m^2 Q2W",22.4%
same,Responses (%),"[2]; baseline circulating CEA ≥5 μg/L (53 patients), 100 mg/m^2 Q2W",20.8%
same,Responses (%),"[2]; baseline circulating CEA ≥100 μg/L (25 patients), 100 mg/m^2 Q2W",40.0%
same,share of the 13 responders with baseline circulating CEA level ≥100 μg/L,"[2]; high expressers cohort, 100 mg/m^2 Q2W",77%
same,"anti-tumor activity, in words",[2],encouraging anti-tumor activity
same,"anti-tumor activity, in words",[2]; listed as tusamitamab ravtansine,Encouraging preliminary anti-tumor activity
same,recognition of CEACAM7,CEACAM7,does not recognize
same,cytotoxic activity on tumor cells in vitro,tumor cells,induce cytotoxic activity
same,tumor growth inhibition in vivo,[3],markedly inhibit tumor growth
